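Cells were grown in 96-well plates and exposed to each compound for 48 hours at five concentrations; endpoints were interpolated linearly between bracketing concentrations, or set to the highest concentration if not reached. The concentration for full growth arrest is given as TGI.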
Assays:
Test in all cases: DTP human tumour cell line panel, 48 h
HL-60(TB) leukemia = test system: HL-60(TB) leukemia
OVCAR-8 ovarian = test system: OVCAR-8 ovarian
HOP-18 NSCLC = test system: HOP-18 NSCLC
DMS 273 small cell lung = test system: DMS 273 small cell lung
LOX IMVI melanoma = test system: LOX IMVI melanoma
COLO 205 colon = test system: COLO 205 colon
XF 498 CNS = test system: XF 498 CNS
ACHN renal = test system: ACHN renal
NCI-H460 lung = test system: NCI-H460 lung
SK-MEL-5 melanoma = test system: SK-MEL-5 melanoma
LXFL 529 NSCLC = test system: LXFL 529 NSCLC
SNB-78 CNS = test system: SNB-78 CNS
OVCAR-4 ovarian = test system: OVCAR-4 ovarian
DMS 114 small cell lung = test system: DMS 114 small cell lung
OVCAR-3 ovarian = test system: OVCAR-3 ovarian
KM12 colon = test system: KM12 colon
NCI-H522 lung = test system: NCI-H522 lung
SF-295 CNS = test system: SF-295 CNS
RXF 393 renal = test system: RXF 393 renal
SNB-75 CNS = test system: SNB-75 CNS
DLD-1 colon = test system: DLD-1 colon
SK-MEL-2 melanoma = test system: SK-MEL-2 melanoma
M14 melanoma = test system: M14 melanoma
786-0 renal = test system: 786-0 renal
SK-MEL-28 melanoma = test system: SK-MEL-28 melanoma
SK-OV-3 ovarian = test system: SK-OV-3 ovarian
IGROV1 ovarian = test system: IGROV1 ovarian
TK-10 renal = test system: TK-10 renal
RXF-631 renal = test system: RXF-631 renal
RPMI-8226 leukemia = test system: RPMI-8226 leukemia
SF-268 CNS = test system: SF-268 CNS
MOLT-4 leukemia = test system: MOLT-4 leukemia
NCI-H226 lung = test system: NCI-H226 lung
M19-MEL melanoma = test system: M19-MEL melanoma
OVCAR-5 ovarian = test system: OVCAR-5 ovarian
A498 renal = test system: A498 renal
HCT-116 colon = test system: HCT-116 colon
HCC-2998 colon = test system: HCC-2998 colon
A549 NSCLC = test system: A549 NSCLC
HCT-15 colon = test system: HCT-15 colon
U251 CNS = test system: U251 CNS
SR leukemia = test system: SR leukemia
UACC-257 melanoma = test system: UACC-257 melanoma
HOP-62 NSCLC = test system: HOP-62 NSCLC
CCRF-CEM leukemia = test system: CCRF-CEM leukemia
UO-31 renal = test system: UO-31 renal
KM20L2 colon = test system: KM20L2 colon
MALME-3M melanoma = test system: MALME-3M melanoma
K-562 leukemia = test system: K-562 leukemia
SN12C renal = test system: SN12C renal
SNB-19 CNS = test system: SNB-19 CNS
SF-539 CNS = test system: SF-539 CNS
CAKI-1 renal = test system: CAKI-1 renal
EKVX NSCLC = test system: EKVX NSCLC
UACC-62 melanoma = test system: UACC-62 melanoma

Question: With `CCOC(=O)CC(C)C1(C=O)CCCCC1=O` (stereo not given) as the compound, how does the TGI (HL-60(TB) leukemia) read?
Answer: > 100 µM

Question: What about the TGI (OVCAR-8 ovarian) of the same compound?
Answer: > 100 µM

Question: What about the TGI (HOP-18 NSCLC) of the same compound?
Answer: > 100 µM

Question: What about the TGI (DMS 273 small cell lung) of the same compound?
Answer: > 100 µM

Question: And the TGI (LOX IMVI melanoma)?
Answer: 34 µM

Question: And the TGI (COLO 205 colon)?
Answer: > 100 µM

Question: And the TGI (XF 498 CNS)?
Answer: > 100 µM

Question: And the TGI (ACHN renal)?
Answer: > 100 µM

Question: What about the TGI (NCI-H460 lung) of the same compound?
Answer: > 100 µM

Question: And the TGI (SK-MEL-5 melanoma)?
Answer: > 100 µM

Question: What about the TGI (LXFL 529 NSCLC) of the same compound?
Answer: > 100 µM

Question: And the TGI (SNB-78 CNS)?
Answer: > 100 µM

Question: And the TGI (OVCAR-4 ovarian)?
Answer: > 100 µM

Question: What about the TGI (DMS 114 small cell lung) of the same compound?
Answer: 41.6 µM

Question: And the TGI (OVCAR-3 ovarian)?
Answer: > 100 µM

Question: And the TGI (KM12 colon)?
Answer: > 100 µM

Question: And the TGI (NCI-H522 lung)?
Answer: > 100 µM

Question: What about the TGI (SF-295 CNS) of the same compound?
Answer: > 100 µM

Question: What about the TGI (RXF 393 renal) of the same compound?
Answer: > 100 µM

Question: And the TGI (SNB-75 CNS)?
Answer: > 100 µM

Question: And the TGI (DLD-1 colon)?
Answer: > 100 µM

Question: What about the TGI (SK-MEL-2 melanoma) of the same compound?
Answer: > 100 µM

Question: What about the TGI (M14 melanoma) of the same compound?
Answer: > 100 µM

Question: What about the TGI (786-0 renal) of the same compound?
Answer: > 100 µM

Question: And the TGI (SK-MEL-28 melanoma)?
Answer: > 100 µM

Question: What about the TGI (SK-OV-3 ovarian) of the same compound?
Answer: > 100 µM

Question: And the TGI (IGROV1 ovarian)?
Answer: > 100 µM

Question: What about the TGI (TK-10 renal) of the same compound?
Answer: > 100 µM

Question: And the TGI (RXF-631 renal)?
Answer: > 100 µM

Question: What about the TGI (RPMI-8226 leukemia) of the same compound?
Answer: 53.2 µM

Question: What about the TGI (SF-268 CNS) of the same compound?
Answer: > 100 µM

Question: What about the TGI (MOLT-4 leukemia) of the same compound?
Answer: > 100 µM

Question: And the TGI (NCI-H226 lung)?
Answer: > 100 µM

Question: What about the TGI (M19-MEL melanoma) of the same compound?
Answer: > 100 µM

Question: What about the TGI (OVCAR-5 ovarian) of the same compound?
Answer: > 100 µM

Question: And the TGI (A498 renal)?
Answer: > 100 µM

Question: What about the TGI (HCT-116 colon) of the same compound?
Answer: > 100 µM

Question: What about the TGI (HCC-2998 colon) of the same compound?
Answer: > 100 µM

Question: And the TGI (A549 NSCLC)?
Answer: > 100 µM

Question: What about the TGI (HCT-15 colon) of the same compound?
Answer: > 100 µM

Question: And the TGI (U251 CNS)?
Answer: > 100 µM

Question: And the TGI (SR leukemia)?
Answer: 49.8 µM

Question: And the TGI (UACC-257 melanoma)?
Answer: > 100 µM

Question: What about the TGI (HOP-62 NSCLC) of the same compound?
Answer: > 100 µM

Question: What about the TGI (CCRF-CEM leukemia) of the same compound?
Answer: > 100 µM

Question: And the TGI (UO-31 renal)?
Answer: > 100 µM

Question: What about the TGI (KM20L2 colon) of the same compound?
Answer: > 100 µM

Question: What about the TGI (MALME-3M melanoma) of the same compound?
Answer: > 100 µM

Question: And the TGI (K-562 leukemia)?
Answer: > 100 µM

Question: And the TGI (SN12C renal)?
Answer: > 100 µM

Question: What about the TGI (SNB-19 CNS) of the same compound?
Answer: > 100 µM

Question: And the TGI (SF-539 CNS)?
Answer: > 100 µM

Question: And the TGI (CAKI-1 renal)?
Answer: > 100 µM

Question: What about the TGI (EKVX NSCLC) of the same compound?
Answer: > 100 µM

Question: What about the TGI (UACC-62 melanoma) of the same compound?
Answer: > 100 µM

From PubChem BioAssay (NCI)
